Test results reported in publication PMC3762901, “Cyclic Peptide Inhibitors of the β-Sliding Clamp in Staphylococcus aureus” (PLoS ONE, 2013).
“And” between values parts separate entries of the source, which are not always exact repeats. Identical values can stand only once. Like-named read-outs stand apart in the source and are kept apart here. Ends that are not written are not given here. Peptide text beside a SMILES is read from it.

Legend:
S. epidermidis = type: cell-based, Staphylococcus epidermidis
Description: (§1) The antibacterial activities of the purified peptides were determined against Staphylococcus epidermidis and S. aureus. […] We can conclude that some but not all of the identified cyclic peptides are able to penetrate the bacterial membrane to find their intracellular target. […] As expected none of the peptides isolated had any activity towards E. coli, whereas they inhibited growth of B. subtilis, another gram positive bacterium (data not shown).

S. aureus = type: cell-based, Staphylococcus aureus
Description: as §1

[1] = test system: S. aureus DnaN-DnaN interaction (β-sliding clamp dimerization); experiment: Bacterial two-hybrid (BTH) β-galactosidase assay of DnaN-DnaN interaction; type: cell-based, Staphylococcus aureus; details: for Ability to interfere with DnaN dimerization after reduction to 8-mers: cyclic 8-mers with the sequence SXXXXXXG expressed intracellularly, not shown; for Reduction of DnaN-DnaN interaction when produced intracellularly: cyclic peptides expressed in E. coli, Fig. 3
Description: The library was screened for peptides able to disrupt DnaN-DnaN interaction of the Staphylococcus replisome by transforming into the R-BTH strain SC01 containing interacting Cya fusion proteins. Cells were plated on plates containing 5-FOA and 1 mM IPTG to induce expression of the cyclic peptides. We readily identified clones where expressed peptides restored cell viability in the presence of 5-FOA (Fig. 3A). To initially assess the activity of the selected peptides we determined their ability to reduce DnaN-DnaN interaction in the original two hybrid system.
Figure 3 Identification of peptides that interfere with DnaN-DnaN interaction. […] After screening of our SICLOPPS library, growth was restored in 7 clones.A. (B) The cyclic peptides identified in (A) were expressed in the original bacterial two-hybrid strain (BTH101) containing T18:DnaN and DnaN:T25 fusion plasmids and the level of β-galactosidase activity was determined as described in Materials and Methods.
Bacterial two-hybrid assay was performed as described previously. Derivatives of plasmids pUT18 and p25N encoding replication proteins were constructed by cloning PCR-amplified DNA fragments in frame with the T25 and T18 fragments of cya. T18 and T25 fusions were transformed into BTH101, and plated on plates containing 40 μg/ml of 5-bromo-4-chloro-indolyl-β-D-galactoside (X-gal) and relevant antibiotics. […] For β-galactosidase assays, cells were grown exponentially at 30°C in LB supplemented with 0.5 mM IPTG, and β-galactosidase activities were measured as described by.

[2] = test system: DNA replication in S. aureus strain 8325-4; experiment: DNA synthesis, incorporation of 3H-thymidine; type: cell-based, Staphylococcus aureus; details: 50 μg/ml peptide; LB, 37°C; TCA precipitate, scintillation counting; repeated 3 times
Description: (§2) In order to test the direct effects of peptides III-5 and III-6 on DNA replication in S. aureus, strain 8325-4 was grown exponentially at 37°C in LB medium. Incorporation of ^3H-thymidine into the DNA was determined at various times after addition of 50 μg/ml of peptides III-5 or III-6. […] Protein synthesis, determined as incorporation of ^35S-methionine, was unaffected by peptide addition for at least 180 minutes (Fig. S1) which is well after the onset of DNA synthesis inhibition. Therefore the DNA replication inhibition is not a consequence of a more general effect on protein synthesis, and we conclude that peptide III-5 and III-6 inhibits replication by interfering with the dnaN encoded β-clamp.
Figure 5 Peptides III-5 and III-6 Inhibit DNA replication. […] Samples were taken at the indicated time-points and incorporation of ^3H into DNA was measured by liquid scintillation counting of TCA precipitated material. […]
For measuring DNA and protein synthesis, S. aureus strain 8325−4 was grown exponentially at 37°C in LB supplemented with 0.2 ml ^3H-thymidine (20 Ci/mmol,1 mCi/ml; Perkin Elmer Inc.) and uridine (50 μg/ml). […] The incorporation of ^3H into DNA was determined using a 1450 MicroBeta TriLux Microplate and Scintillation and Luminiscence counter (Perkin Elmer Inc.).

[3] = test system: Protein synthesis in S. aureus strain 8325-4; experiment: Protein synthesis, incorporation of 35S-methionine; type: cell-based, Staphylococcus aureus; details: 50 μg/ml peptide; for at least 180 minutes; repeated 3 times
Description: as §2
S. aureus strain 8325-4 was grown exponentially in LB supplemented with ^35S-methionine. At T=0 peptide III-5 (grey triangles) or III-6 (green squares) was added to a final concentration of 50 μg/ml. Addition of buffer (red filled circles) served as control. Samples were taken at the indicated time-points and incorporation of ^35S into protein was measured by liquid scintillation counting of TCA precipitated material. The experiment was repeated 3 times with similar result. The result from one experiment is shown.

S. aureus strain 8325-4 = experiment: Growth (colony forming units) of S. aureus with or without DnaN overproduction after peptide addition; type: cell-based, Staphylococcus aureus; details: 40 μg/ml peptide, LB, 37°C, repeated 4 times
Description: To ensure that the antibacterial effects of peptides III-5 and III-6 were the result of direct interaction of these peptides with the β-clamp, we decided to overproduce DnaN in S. aureus cells. The dnaN gene was cloned under control of the cadmium induclible pCAD promoter of plasmid pCN51 [37]. Cells were grown exponentially at 37°C in LB medium and 3 hours prior to peptide addition expression of dnaN was induced by addition of 10 μM CdCl2. At time T = 0 peptides III-5 or III-6 were added to a final concentration of 40 μg/ml which is very close to the MIC value for both of these peptides (Fig. 4).
Figure 4 Overproduction of DnaN in S. aureus relieves the growth inhibition imposed by peptides III-5 and […]. S. aureus strain 8325-4 containing either the vector plasmid pCN51 (black filled squares) or plasmid pSC141 (grey triangles) was grown exponentially at 37°C in LB medium supplemented with 10 μg/ml erythromycin. CdCl2 was added to all cultures to a final concentration of 10 μM to induce overproduction of DnaN from pSC141 three hours prior to peptide addition. At T = 0, 40 μg/ml of peptide III-5 (middle panel) or III-6 (bottom panel) was added to the cultures. The number of colony forming units was determined by plating. The experiment were repeated 4 times with similar results.

[4] = test system: S. aureus or S. epidermidis; type: cell-based
Excerpt: In agreement with this none of these peptides were particularly hydrophobic or cationic (Table 4). […] This could be tested by construction of deletion mutants lacking one or more of these permeases. We synthesized and tested linear counterparts of the active peptides III-5, III-6 and III-7. […] Increased antibacterial activity of peptides due to circularization has previously been described.

[5] = target: DnaN (β), β-sliding clamp of S. aureus (S. aureus) (UniProt P0A024)
UniProt P0A024, sequence (P0A024 whole entry): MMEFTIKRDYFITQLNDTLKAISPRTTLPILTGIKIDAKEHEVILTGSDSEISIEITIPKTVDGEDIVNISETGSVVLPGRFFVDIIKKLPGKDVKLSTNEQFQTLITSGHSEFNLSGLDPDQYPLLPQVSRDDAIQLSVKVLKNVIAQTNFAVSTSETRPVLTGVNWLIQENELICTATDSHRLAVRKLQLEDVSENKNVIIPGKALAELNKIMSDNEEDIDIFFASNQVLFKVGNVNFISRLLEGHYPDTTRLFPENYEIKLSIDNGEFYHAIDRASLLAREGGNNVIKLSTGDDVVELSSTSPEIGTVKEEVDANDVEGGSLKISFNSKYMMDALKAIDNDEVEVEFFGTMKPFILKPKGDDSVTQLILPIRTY

CC(C)C[C@H](NC(=O)[C@@H](NC(=O)[C@H](Cc1ccccc1)NC(=O)[C@H](CC(C)C)NC(=O)[C@H](Cc1c[nH]c2ccccc12)NC(=O)[C@H](CS)NC(=O)[C@H](CCCNC(=N)N)NC(=O)[C@@H](N)CS)C(C)C)C(=O)O [linear IV-N8] (H-CRCWLFVL-OH)
MIC for linear peptide (S. epidermidis): >1124 ^4 (>1.08) μg/ml

CRGHVWVD [linear III-7]
MIC for linear peptide (S. aureus): > 560 µg/mL

CC(C)C[C@@H]1NC(=O)[C@H](Cc2ccccc2)NC(=O)[C@H](C(C)C)NC(=O)[C@H](CCCNC(=N)N)NC(=O)[C@H](CS)NC(=O)[C@H](CS)NC(=O)CNC(=O)[C@H](CS)NC1=O [III-5] (cyclo(CRVFLCGC))
Ability to interfere with DnaN dimerization after reduction to 8-mers [1]: retaining their ability to interfere with DnaN dimerization
Reduction of DnaN-DnaN interaction when produced intracellularly [1]: efficient in reducing DnaN-DnaN interaction
Accumulation of DNA (3H-thymidine incorporation) [2]: severely reduced accumulation of DNA
Protein synthesis (35S-methionine incorporation) [3]: unaffected
MIC for cyclic peptide (S. aureus; cyclic 8-mer CRXXXXXX, determined for S. aureus, highest concentration tested 100 μg/ml): 50 µg/mL
MIC for cyclic peptide (molar) (S. aureus; cyclic 8-mer CRXXXXXX, determined for S. aureus, value in brackets): 57 µM
Potency against S. epidermidis compared with S. aureus (S. epidermidis; cyclic peptides, data not shown): somewhat more potent against S. epidermidis
Bacterial growth of uninduced cultures after peptide addition (S. aureus strain 8325-4; 8 hours duration, colony forming units): cessation of bacterial growth
Bacterial growth of cultures overproducing DnaN after peptide addition (S. aureus strain 8325-4; dnaN induced with 10 μM CdCl2 3 hours before (pSC141)): continued growth
MIC values (range given for the three active cyclic peptides) ([4]; cyclic peptides, summary over S. aureus (III-5, III-6) and S. epidermidis (III-7)): 20−50 μg/ml

CC(C)C[C@@H]1NC(=O)[C@H](CO)NC(=O)[C@H](CCC(=O)O)NC(=O)[C@H](Cc2ccccc2)NC(=O)[C@H]([C@@H](C)O)NC(=O)[C@H](CO)NC(=O)[C@H](CCCNC(=N)N)NC(=O)[C@H](CS)NC1=O [III-8] (cyclo(CRSTFESL))
Reduction of DnaN-DnaN interaction when produced intracellularly [1]: efficient in reducing DnaN-DnaN interaction
MIC for cyclic peptide (S. aureus): > 100 µg/mL

cyclo(CRCWLFVL) (cysteine pairing not given here) [IV-N8, cyclic 8-mer CRCWLFVL synthesized via FMOC SPPS]
Ability to interfere with DnaN dimerization after reduction to 8-mers [1]: retaining their ability to interfere with DnaN dimerization
MIC for cyclic peptide (S. epidermidis; cyclic 8-mer CRXXXXXX, determined for S. epidermidis, highest concentration tested 100 μg/ml): > 100 µg/mL

purified cyclic peptide III-5 (CRVFLCGC)
MIC for cyclic peptide, determined for S. aureus [5]: 50 μg/ml and 57 μM

CC(C)C[C@H](NC(=O)[C@H](Cc1ccccc1)NC(=O)[C@@H](NC(=O)[C@H](CCCNC(=N)N)NC(=O)[C@@H](N)CS)C(C)C)C(=O)N[C@@H](CS)C(=O)NCC(=O)N[C@@H](CS)C(=O)O [linear III-5] (H-CRVFLCGC-OH)
MIC for linear peptide (S. aureus): > 560 µg/mL

CC(C)[C@@H]1NC(=O)[C@H](Cc2c[nH]c3ccccc23)NC(=O)[C@H](C(C)C)NC(=O)[C@H](Cc2c[nH]cn2)NC(=O)CNC(=O)[C@H](CCCNC(=N)N)NC(=O)[C@H](CS)NC(=O)[C@H](CC(=O)O)NC1=O [III-7] (cyclo(CRGHVWVD))
Ability to interfere with DnaN dimerization after reduction to 8-mers [1]: retaining their ability to interfere with DnaN dimerization
Reduction of DnaN-DnaN interaction when produced intracellularly [1]: efficient in reducing DnaN-DnaN interaction
MIC values (range given for the three active cyclic peptides) [4]: 20−50 μg/ml

CRSQGLFK [linear III-6]
MIC for linear peptide (S. aureus): > 560 µg/mL

purified cyclic peptide III-6 (CRSQGLFK)
MIC for cyclic peptide, determined for S. aureus [5]: 50 μg/ml and 54 μM
